From the METLIN SMRT retention time set (Domingo-Almenara et al. 2019)

Assay: gradient 5% acetonitrile 3 min, to 50% in 2 min, to 85% in 15 min, held 3 min, 100 µL/min
Settings: column: Zorbax Extend-C18 2.1 x 50 mm; eluents: water / acetonitrile, 0.1% formic acid
Summary of the method: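 Data were gathered over 3 months by HPLC coupled to a quadrupole time-of-flight mass spectrometer, operated in positive and negative ionization mode. Mixtures of ~100 pure standards ran on a Zorbax Extend-C18 column (2.1 × 50 mm, 1.8 μm) at 100 μL/min, with water and acetonitrile each containing 0.1% formic acid and dead and dwell volumes of 40 μL and 900 μL. Retention time was read from adduct peaks picked by computer and checked manually.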

Row | Compound | RP-LC retention time [s]
1 | CC1CCN(c2cncnc2-n2cc(NC(=O)CC3CCCCC3)cn2)CC1 | 1030
2 | COCCNC(=O)CN1CCN(c2cc(C(=O)O)c3cc(NC(=O)C(C)(C)C)ccc3n2)CC1 | 561
3 | COc1cc2c(CCNC(C)=O)c[nH]c2cc1Cl | 754
4 | CCOc1ccccc1C1C(C#N)=C(N)Oc2cc(C)n(CCN(C)C)c(=O)c21 (centres undefined) | 597
5 | COC(=O)c1ccc2c(=O)n(-c3cccc(OC)c3)c(N3CCSC3)nc2c1 | 1020
6 | Fc1cccc(Cn2cc(-c3noc(-c4ccccc4)n3)nn2)c1 | 986
7 | CN1CCN(C(CNC(=O)Cc2ccc(Cl)cc2)c2ccc3c(c2)OCO3)CC1 (centres undefined) | 587
8 | O=C(NCc1cc(F)ccc1F)c1cn2c(n1)CCCC2 | 601
9 | Cc1nc(-c2noc(-c3ccc(F)cc3)n2)cn1CC(=O)NCc1cccs1 | 814
10 | Cc1cc(C)c2c(-n3cccc3)nn(CC(=O)Nc3ccc(C(C)C)cc3)c2n1 | 1160
11 | CCOC(=O)C(C)Sc1nnc2n1CCN2c1ccc(F)cc1 (centres undefined) | 718
12 | O=S(=O)(Nc1ccc(F)cc1)c1cccnc1Nc1ccccc1 | 1050
13 | CCCCn1c(=O)c2ccccc2n(Cc2nc(-c3ccc(OC(C)C)cc3)no2)c1=O | 1290
14 | Cc1ccc(C)c(S(=O)(=O)N2CCC(F)(c3nc(CC(C)C)no3)CC2)c1 | 1270
15 | CCc1ccc(-c2cn3cc(C(=O)N4CCCN(C)CC4)ccc3n2)cc1 | 570
16 | CCCN1C(=O)COc2ccc(-c3noc(-c4cccc(OC)c4OC)n3)cc21 | 1160
17 | CCOC(=O)c1ccc(NC(=O)C23CCC(C)(C(=O)C2)C3(C)C)cc1 (centres undefined) | 897
18 | CC(C)Cc1ccc(S(=O)(=O)N2CCCC(CNC(=O)c3ccccc3)C2)cc1 (centres undefined) | 1120
19 | O=C(c1cccnc1)N1CCc2cc(-c3ccno3)ccc21 | 683
20 | CCOC(=O)c1ccc2c(=O)c(C(=O)OCC)c[nH]c2c1 | 661
21 | Cc1ccc(-n2c(N3CCCC(C(=O)Nc4ccc(C)c(F)c4)C3)nc3ccsc3c2=O)cc1 (centres undefined) | 1070
22 | Cc1ccc(-c2cn3cccnc3n2)cc1NC(=O)c1ccc(Br)cc1 | 730
23 | CS(=O)(=O)N1CCc2ccc(C(=O)N3CCCCC3)cc21 | 717

Row | Compound | RP-LC retention time [s]
24 | Cn1nccc1C(=O)N1CCC(c2nc(-c3ccccc3)no2)C1 (centres undefined) | 779
25 | COc1ccc(Br)c(C(=O)N2CC(c3nc(-c4cccc(Cl)c4)no3)C2)c1 | 1000
26 | Cc1cccc(NS(=O)(=O)c2ccc(-c3c(C)noc3C)cc2)c1 | 881
27 | Cn1c(-c2ccccc2)nn(CCNC(=O)c2cc3ccccc3o2)c1=O | 694
28 | COc1ccccc1N1CCN(c2cc(SCC(=O)Nc3cc(C)cc(C)c3)ncn2)CC1 | 1070
29 | CNC(=O)C1=CCN(C(=O)NC2CCCC2)CC1 | 615
30 | CCOc1ccc(-c2noc(-c3nc(C)no3)n2)cc1 | 986
31 | Cc1cccc(NC(=O)Nc2ccc3c(c2)CCN3S(=O)(=O)c2ccccc2)c1C | 984
32 | COc1ccccc1-n1ccnc(NC(=O)Nc2cccc(F)c2)c1=O | 919
33 | CC(C)NC(=O)c1ccc(OCC2CCCN(C(=O)C3(c4ccccc4)CC3)C2)cc1 (centres undefined) | 940
34 | COc1ccc(C)cc1NC(=O)C1CCCN1S(=O)(=O)c1cc2c(cc1C)NC(=O)C(C)O2 (centres undefined) | 880
35 | O=C(c1ccsc1)N1CCN(c2cc(-c3ccc(Cl)cc3)[nH]n2)CC1 | 809
36 | O=C(NCc1ccco1)c1cccc(Nc2c(-c3ccccc3)nc3cnccn23)c1 | 756
37 | Cc1oc(-c2[nH]ncc2C(=O)N(C)C)cc1S(=O)(=O)Nc1cc(F)cc(F)c1 | 890
38 | CC1CCCN(c2ccc(-c3noc(CN4CCSCC4)n3)cn2)C1 (centres undefined) | 856
39 | O=C1CC(c2ccccc2)N(Cc2ccc3c(c2)CCO3)CCCCCCN1 (centres undefined) | 668
40 | Cc1cccc2nc(-c3ccc(Cl)cc3)c(Nc3ccc4c(c3)OCO4)n12 | 750
41 | COc1cccc(N2CCN(CC(O)c3ccc(C)cc3)CC2)c1 (centres undefined) | 677
42 | CCc1ccc2nc(Nc3nc(C)c4c(n3)CCCC4)nc(C)c2c1 | 754
43 | COc1ccc(CNC(=O)C2CCCN2S(=O)(=O)c2cc3c(cc2C)NC(=O)CO3)cc1 (centres undefined) | 728
44 | O=S(=O)(c1ccc2c(c1)CCC2)N1CCCn2nc(-c3cccs3)cc2C1 | 1060
45 | O=C(C1CCC1)N1CCc2sc(S(=O)(=O)N3CCN(c4ccccc4)CC3)cc2C1 | 1060
46 | COc1ccc(CCC(=O)NC(C)C(=O)Nc2nc3ccccc3[nH]2)cc1 (centres undefined) | 656

Row | Compound | RP-LC retention time [s]
47 | CCc1noc(-c2ccnc(-n3cnc(C(=O)NC(C)C)c3)c2)n1 | 784
48 | O=C(NC1CC1)C1CCN(S(=O)(=O)Cc2ccc(F)cc2)CC1 | 929
49 | Cc1nc(-c2cccnc2)nc2c1CCC(=O)N2Cc1ccncc1 | 554
50 | O=C(NCc1ccccc1)c1nc(Cn2c(=O)oc3ccccc32)no1 | 880
51 | CSCC[C@H](NC(=O)COc1cc(C)cc2oc(=O)c3c(c12)CCC3)C(=O)O | 769
52 | Cc1cccc(CNC(=O)C2CCN(Cc3cn(C)c4ccc(Cl)cc34)CC2)c1 | 757
53 | COc1ccc(NC(=O)N2CCC(C(=O)NCc3csc(-c4ccccc4)n3)CC2)c(OC)c1 | 777
54 | Cc1cc(NC(=O)Nc2ccc3c(c2)CCN3S(C)(=O)=O)ccc1Br | 943
55 | CSc1ccc(CNC(=O)C2CCCN(c3ncnc4nn(-c5ccc(C)cc5)cc34)C2)cc1 (centres undefined) | 750
56 | CCOC(=O)c1cc(C2CC2)nc2c1c(=O)n(Cc1ccc(F)cc1Cl)c(=O)n2C | 855
57 | O=C(NCc1ccc(Cl)cc1)c1ccc(Oc2nccnc2N2CCSCC2)cc1 | 986
58 | CS(=O)(=O)Nc1ccc(Cc2noc(-c3ccc4[nH]cc(CCN)c4c3)n2)cc1 | 686
59 | COc1ccccc1NC(=O)Nc1c(-c2ccc(F)cc2)nc2ccccn12 | 692
60 | COc1cccc(N2C(=O)C3N=NN(Cc4nc(-c5ccccc5C)no4)C3C2=O)c1 (centres undefined) | 976
61 | CC1=C(c2ccccc2)S(=O)(=O)N=C1N1CCCN(C(=O)NC(C)C)CC1 | 714
62 | N#Cc1cccc(-c2cn3c(n2)N(C(=O)C2CCCO2)CCC3)c1 (centres undefined) | 703
63 | CCCCn1c(=O)c2ccccc2n(Cc2nc(-c3cccc(Cl)c3)no2)c1=O | 1250
64 | O=S(=O)(c1ccc(Cl)s1)N1CCc2nc(-c3ccccc3)ncc2C1 | 1170
65 | COc1c2c(cc3c1[C@@H]1Oc4c(ccc(O)c4CC=C(C)C)[C@@H]1CO3)OC(C)(C)C=C2 | 710
66 | O=C(C1CC1)N1CCCn2nc(-c3ccccc3)cc2C1 | 739
67 | COc1ccc(F)cc1S(=O)(=O)N1CCC(OCc2noc(C3CCCO3)n2)CC1 (centres undefined) | 870
68 | CCOc1ccc2nc(NC(=O)C3CCN(S(=O)(=O)c4cn(CC)cn4)CC3)sc2c1 | 809
69 | CCOc1cc(CNC(=O)C2CCCN(c3nc4ccccc4n(CC)c3=O)C2)ccc1OC (centres undefined) | 936

Row | Compound | RP-LC retention time [s]
70 | Cc1ccc(CNC(=O)c2ccc3c(c2)CNCCO3)cc1 | 617
71 | CCC(C)Cn1c(CNC(=O)c2ccco2)nc2ccccc21 (centres undefined) | 664
72 | CCc1ccc(NC(=O)C2CCN(S(=O)(=O)c3ccc4c(c3)NC(=O)C(C)O4)CC2)cc1 (centres undefined) | 927
73 | COc1cccc(CNC2=NCCNC23CCN(S(=O)(=O)c2ccc(F)cc2)CC3)c1 | 695
74 | COc1cccc(CNC(=O)C2(C)CCN(C(=O)Nc3cc(OC)c(OC)c(OC)c3)CC2)c1 | 732
75 | COc1cc(-c2noc(CN3C(=O)C(C)Oc4ccccc43)n2)cc(OC)c1OC (centres undefined) | 980
76 | CC(C)OCCCNC(=O)CC1=C2CCCCC2NC1=O (centres undefined) | 628
77 | CCNC(=O)c1cc(-c2ccc(F)cc2)n[nH]1 | 695
78 | O=C(NCCc1ccccc1)N1CCC(c2noc(-c3ccccc3)n2)C1 (centres undefined) | 914
79 | CCOC(=O)CCNC(=O)N1CCN(Cc2nc3cccnc3n2-c2ccc(F)cc2)CC1 | 607
80 | CNC(=O)C1CCCN(C(=O)Nc2ccc(NC(=O)Nc3ccccc3)cc2)C1 (centres undefined) | 663
81 | Cc1nc2sccn2c(=O)c1NC(=O)Nc1ccc(C(C)C)cc1 | 704
82 | CS(=O)(=O)N1CCC(OC2CCN(C(=O)Nc3cccc(C(F)(F)F)c3)CC2)CC1 | 846
83 | O=C(Nc1ccc2nncn2c1)Nc1ccccc1F | 659
84 | O=C(Cn1c(=O)c(=O)n(Cc2ccncc2)c2ncccc21)NC1CCCCCCC1 | 646
85 | O=C(CN1C(=O)C2CCCCN2c2ccc(S(=O)(=O)N3CCCCC3)cc21)NC1CCCC1 (centres undefined) | 980
86 | CC1CCC(C(=O)Nc2cc3c(cc2N2CCCCC2)n(C)c(=O)c(=O)n3C)CC1 (centres undefined) | 1050
87 | CCOc1ccc2nc(NC(=O)c3ccc(N4CCCC4)nn3)sc2c1 | 830
88 | Cc1cc(N2CCN(C(=O)c3ccco3)CC2)n2nc(C)c(-c3ccc(Cl)cc3)c2n1 | 838
89 | CCOC(=O)CNC(=O)Nc1cccc(-c2nnc(Cc3ccc(C)cc3)o2)c1 | 867
